Drawing on US7109193B2, “Tricyclic diazepines tocolytic oxytocin receptor antagonists” (Wyeth, priority 2001, dated 2006), this text covers inhibition and IC50 for 25 compounds.

Structures can show the parent of a compound that is named as a salt.

T1 sequence (P37288 whole entry): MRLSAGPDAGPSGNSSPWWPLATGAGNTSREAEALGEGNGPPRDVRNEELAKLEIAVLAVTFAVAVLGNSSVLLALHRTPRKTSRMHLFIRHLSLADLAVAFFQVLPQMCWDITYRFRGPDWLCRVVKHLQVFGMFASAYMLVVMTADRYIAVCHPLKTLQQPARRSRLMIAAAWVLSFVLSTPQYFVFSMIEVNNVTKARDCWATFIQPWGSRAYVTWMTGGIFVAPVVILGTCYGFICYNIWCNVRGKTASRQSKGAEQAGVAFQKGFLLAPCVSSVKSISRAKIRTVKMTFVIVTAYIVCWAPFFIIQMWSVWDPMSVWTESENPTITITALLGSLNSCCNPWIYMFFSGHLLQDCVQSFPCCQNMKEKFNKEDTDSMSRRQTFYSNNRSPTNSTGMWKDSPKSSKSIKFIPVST

The first experiment addresses T1, human vasopressin V1a receptor subtype (Homo sapiens, UniProt P37288).
T1 construct: host or cells: CHO cells (pZeoSV vector for the Thibonnier line)
Briefly: Vasopressin binding in Chinese Hamster Ovary cell membranes expressing human vasopressin V1a subtype receptors. The conditions noted are these: 100 nM, CHO cell membranes, [3H]Manning ligand, values without parentheses. A digest of the protocol: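 Displacement of [3H]Manning ligand (8 nM working solution) from human V1a receptors in CHO cell membranes, 25–50 μg protein per well. Incubation ran 60 min at room temperature in 50 mM Tris-HCl pH 7.4 with protease inhibitors, followed by filtration and scintillation counting. Results are given as IC50 or percent inhibition.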
For the compound `CN(C)CCCNC(=O)c1ccc2n1Cc1ccccc1N(C(=O)c1ccc(-c3cccc4ccccc34)cc1Cl)C2` [Example 83, 10-[2-Chloro-4-(1-naphthyl)benzoyl]-N-[3-(dimethylamino)propyl]-10,11-dihydro-5H-pyrrolo[2,1-c][1,4]benzodiazepine-3-carboxamide], the inhibition at 0.1 µM is 8%.
On the same count and under the same terms, the value for `COc1cc(C(=O)N2Cc3ccc(C(=O)N(C)CCN(C)C)n3Cc3ccccc32)ccc1-c1ccccc1C` [Example 92, N-[2-(Dimethylamino)ethyl]-10-[(2-methoxy-2′-methyl[1,1′-biphenyl]-4-yl)carbonyl]-N-methyl-10,11-dihydro-5H-pyrrolo[2,1-c][1,4]benzodiazepine-3-carboxamide] was 78%; that for `CN(C)CCN(C)C(=O)c1ccc2n1Cc1ccccc1N(C(=O)c1ccc(-c3cccc4ccccc34)cc1Cl)C2` [Example 96, 10-[2-Chloro-4-(1-naphthyl)benzoyl]-N-[2-(dimethylamino)ethyl]-N-methyl-10,11-dihydro-5H-pyrrolo[2,1-c][1,4]benzodiazepine-3-carboxamide] was 10%.
On the same count and under the same terms, the value for `COc1cc(C(=O)N2Cc3ccc(C(=O)N(C)CCN(C)C)n3Cc3ccccc32)ccc1-c1cccc2ccccc12` [Example 93, N-[2-(Dimethylamino)ethyl]-10-[3-methoxy-4-(1-naphthyl)benzoyl]-N-methyl-10,11-dihydro-5H-pyrrolo[2,1-c][1,4]benzodiazepine-3-carboxamide] was 29%.
Turning to `COc1ccccc1-c1ccc(C(=O)N2Cc3ccc(C(=O)N(C)CCN(C)C)n3Cc3ccccc32)cc1C` [Example 88, N-[2-(Dimethylamino)ethyl]-10-[(2′-methoxy-2-methyl[1,1′-biphenyl]-4-yl)carbonyl]-N-methyl-10,11-dihydro-5H-pyrrolo[2,1-c][1,4]benzodiazepine-3-carboxamide], the inhibition at 0.1 µM amounted to 44%.
On the same count and under the same terms, the value for `COc1cc(C(=O)N2Cc3ccc(C(=O)N(C)CCCN(C)C)n3Cc3ccccc32)ccc1-c1ccccc1C` [Example 105, N-[3-(Dimethylamino)propyl]-10-[(2-methoxy-2′-methyl[1,1′-biphenyl]-4-yl)carbonyl]-N-methyl-10,11-dihydro-5H-pyrrolo[2,1-c][1,4]benzodiazepine-3-carboxamide] was 74%.
The same measure, in the same setting: the value for `COc1ccccc1-c1ccc(C(=O)N2Cc3ccc(C(=O)N(C)CCCN(C)C)n3Cc3ccccc32)cc1C` [Example 100, N-[3-(Dimethylamino)propyl]-10-[(2′-methoxy-2-methyl[1,1′-biphenyl]-4-yl)carbonyl]-N-methyl-10,11-dihydro-5H-pyrrolo[2,1-c][1,4]benzodiazepine-3-carboxamide] was 27%.
Still for that read-out and setting: the value for `Cc1ccccc1-c1ccc(C(=O)N2Cc3ccc(C(=O)N(C)CCCN(C)C)n3Cc3ccccc32)cc1C` [Example 101, N-[3-(Dimethylamino)propyl]-10-[(2,2′-dimethyl[1,1′-biphenyl]-4-yl)carbonyl]-N-methyl-10,11-dihydro-5H-pyrrolo[2,1-c][1,4]benzodiazepine-3-carboxamide] was 75%.
Turning to `Cc1ccccc1-c1ccc(C(=O)N2Cc3ccc(C(=O)N(C)CCN(C)C)n3Cc3ccccc32)cc1` [Example 91, N-[2-(Dimethylamino)ethyl]-N-methyl-10-[(2′-methyl[1,1′-biphenyl]-4-yl)carbonyl]-10,11-dihydro-5H-pyrrolo[2,1-c][1,4]benzodiazepine-3-carboxamide], the inhibition at 0.1 µM is 90%.
Regarding `COc1ccccc1-c1ccc(C(=O)N2Cc3ccc(C(=O)N(C)CCN(C)C)n3Cc3ccccc32)cc1OC` [Example 94, 10-[(2,2′-Dimethoxy[1,1′-biphenyl]-4-yl)carbonyl]-N-[2-(dimethylamino)ethyl]-N-methyl-10,11-dihydro-5H-pyrrolo[2,1-c][1,4]benzodiazepine-3-carboxamide], the inhibition at 0.1 µM was determined as 28%.
Still for that read-out and setting: the figure for `COc1cccc(-c2cc(OC)c(C(=O)N3Cc4ccc(C(=O)NCCCN(C)C)n4Cc4ccccc43)cc2Cl)c1` [Example 79, 10-[(6-Chloro-3,3′-dimethoxy[1,1′-biphenyl]-4-yl)carbonyl]-N-[3-(dimethylamino)propyl]-10,11-dihydro-5H-pyrrolo[2,1-c][1,4]benzodiazepine-3-carboxamide] is 0%.

Still in this experiment, the particulars now being: CHO cell membranes, [3H]Manning ligand, values in parentheses.
Turning to `COc1cc(-c2ccccc2F)c(Cl)cc1C(=O)N1Cc2cccn2Cc2ccccc21` [Example 18B, 10-{[6-Chloro-3-methoxy-2′-fluoro-[1,1′-biphenyl]-4-yl]carbonyl}-10,11-dihydro-5H-pyrrolo[2,1-c][1,4]benzodiazepine], the IC50 was determined as 386 nM.
On to `COc1cc(-c2ccccc2C)c(Cl)cc1C(=O)N1Cc2ccc(C(=O)N3CC[C@@H](N(C)C)C3)n2Cc2ccccc21` [Example 273, {10-[(6-Chloro-3-methoxy-2′-methyl[1,1′-biphenyl]-4-yl)carbonyl]-10,11-dihydro-5H-pyrrolo[2,1-c][1,4]benzodiazepin-3-yl}[(3R)-3-(dimethylamino)pyrrolidinyl]methanone], for which the IC50 amounted to 481 nM.
With `Cc1cc(C(=O)N2Cc3ccc(C(=O)N4CCNCC4)n3Cc3ccccc32)ccc1-c1ccccc1C(F)(F)F` [Example 7, 10,11-Dihydro-10-[[2-methyl-2′-trifluoromethyl-[1,1′-biphenyl]-4-yl]carbonyl]-3-(1-piperazinylcarbonyl)-5H-pyrrolo[2,1-c][1,4]benzodiazepine hydrochloride salt], the IC50 turned out to be 2480 nM.
On to `COc1ccccc1-c1ccc(C(=O)N2Cc3ccc(C(=O)N4CCN(CCN5CCOCC5)CC4)n3Cc3ccccc32)cc1C` [Example 206, {10-[(2′-Methoxy-2-methyl[1,1′-biphenyl]-4-yl)carbonyl]-10,11-dihydro-5H-pyrrolo[2,1-c][1,4]benzodiazepin-3-yl}{4-[2-(4-morpholinyl)ethyl]-1-piperazinyl}methanone], for which the IC50 was 317 nM.
Turning to `COc1cc(-c2ccccc2C)ccc1C(=O)N1Cc2ccc(C(=O)N(C)CCCN(C)C)n2Cc2ccccc21` [Example 11, N-Methyl-N-[3-(dimethylamino)propyl]-10-[(3-methoxy-2′-methyl[1,1′-biphenyl]-4-yl)carbonyl]-10,11-dihydro-5H-pyrrolo[2,1-c][1,4]benzodiazepine-3-carboxamide], the IC50 is 70.4 nM.
On to `Cc1cc(C(=O)N2Cc3ccc(C(=O)NC(=N)N)n3Cc3ccccc32)ccc1-c1ccccc1C(F)(F)F` [Example 8, N-[(10-{[2-methyl-2′-(trifluoromethyl)[1,1′-biphenyl]-4-yl]carbonyl}-10,11-dihydro-5H-pyrrolo[2,1-c][1,4]benzodiazepin-3-yl)carbonyl]guanidine], for which the IC50 stood at 1370 nM.
For the compound `COc1ccccc1-c1ccc(C(=O)N2Cc3ccc(C(=O)N4CCN(CCN5CCOCC5)CC4)n3Cc3ccccc32)cc1` [Example 207, {10-[(2′-Methoxy[1,1′-biphenyl]-4-yl)carbonyl]-10,11-dihydro-5H-pyrrolo[2,1-c][1,4]benzodiazepin-3-yl}{4-[2-(4-morpholinyl)ethyl]-1-piperazinyl}methanone], the IC50 came out at 488 nM.
The same measure, in the same setting: the value for `C=CCN1CCN(C(=O)c2ccc3n2Cc2ccccc2N(C(=O)c2ccc(-c4ccccc4OC)cc2)C3)CC1` [Example 221, (4-Allyl-1-piperazinyl){10-[(2′-methoxy[1,1′-biphenyl]4-yl)carbonyl]-10,11-dihydro-5H -pyrrolo[2,1-c][1,4]benzodiazepin-3-yl}methanone] was 818 nM; that for `Cc1cc(C(=O)N2Cc3ccc(C(=O)N4CC[C@@H](N(C)C)C4)n3Cc3ccccc32)ccc1-c1ccccc1C(F)(F)F` [Example 271, [(3R)-3-(Dimethylamino)pyrrolidinyl](10-{[2-methyl-2′-(trifluoromethyl)[1,1′-biphenyl]-4-yl]carbonyl}-10,11-dihydro-5H-pyrrolo[2,1-c][1,4]benzodiazepin-3-yl)methanone] was 983 nM.
On to `COc1ccccc1-c1ccc(C(=O)N2Cc3ccc(C(=O)N4CC[C@@H](N(C)C)C4)n3Cc3ccccc32)cc1C` [Example 272, [(3R)-3-(Dimethylamino)pyrrolidinyl]{10-[(2′-methoxy-2-methyl[1,1′-biphenyl]-4-yl)carbonyl]-10,11-dihydro-5H-pyrrolo[2,1-c][1,4]benzodiazepin-3-yl}methanone], for which the IC50 was 301 nM.
On the same count and under the same terms, the figure for `COc1cc(-c2ccccc2C(F)(F)F)c(OC)cc1C(=O)N1Cc2cccn2Cc2ccccc21` [Example 32, 10-{[3,6-Dimethoxy-2′-trifluoromethyl-[1,1′-biphenyl]-4-yl]carbonyl}-10,11-dihydro-5H-pyrrolo[2,1-c][1,4]benzodiazepine] is greater than 3000 nM; for `Cc1cc(C(=O)N2Cc3ccc(C(=O)N(C)CCN(C)C)n3Cc3ccccc32)ccc1-c1ccccc1C(F)(F)F` [Example 85, N-[2-(Dimethylamino)ethyl]-N-methyl-10-{[2-methyl-2′-(trifluoromethyl)[1,1′-biphenyl]-4-yl]carbonyl}-10,11-dihydro-5H-pyrrolo[2,1-c][1,4]benzodiazepine-3-carboxamide] it is 788 nM.
Take `Cc1cc(C(=O)N2Cc3ccc(C(=O)N4CCCN(C)CC4)n3Cc3ccccc32)ccc1-c1ccccc1C(F)(F)F` [Example 59, (4-Methyl-1,4-diazepan-1-yl)(10-{[2-methyl-2′-(trifluoromethyl)[1,1′-biphenyl]-4-yl]carbonyl}-10,11-dihydro-5H-pyrrolo[2,1-c][1,4]benzodiazepin-3-yl)methanone]: the IC50 came out at 1890 nM.
With `COc1ccccc1-c1ccc(C(=O)N2Cc3ccc(C(=O)N4CCC(N5CCCCC5)CC4)n3Cc3ccccc32)cc1` [Example 111, {10-[(2′-Methoxy[1,1′-biphenyl]-4-yl)carbonyl]-10,11-dihydro-5H-pyrrolo[2,1-c][1,4]benzodiazepin-3-yl}[4-(1-piperidinyl)-1-piperidinyl]methanone], the IC50 was 459 nM.
